Activity calls are given as the source filed them. No cut-off for these calls is given here. Where a SMILES comes first, the peptide text is derived from it. [ ]: non-standard residue; d: D form.

The text below walks through data of ChEMBL document CHEMBL5247608, “HIV-1 gp120-CXCR4 recognition probed with synthetic nanomolar affinity D-peptides containing fragments of gp120 V3 loop” (Eur J Med Chem, 2022).

The target in data set [1] is T1, C-X-C chemokine receptor type 4 (Homo sapiens, UniProt P61073). Kind of data set: Displacement of 12G5 mAb from CXCR4 (unknown origin) expressed in CHO cells incubated for 40 mins by spectrophotometric method. Type of data set: cell-based.
T1 sequence (P61073 whole entry): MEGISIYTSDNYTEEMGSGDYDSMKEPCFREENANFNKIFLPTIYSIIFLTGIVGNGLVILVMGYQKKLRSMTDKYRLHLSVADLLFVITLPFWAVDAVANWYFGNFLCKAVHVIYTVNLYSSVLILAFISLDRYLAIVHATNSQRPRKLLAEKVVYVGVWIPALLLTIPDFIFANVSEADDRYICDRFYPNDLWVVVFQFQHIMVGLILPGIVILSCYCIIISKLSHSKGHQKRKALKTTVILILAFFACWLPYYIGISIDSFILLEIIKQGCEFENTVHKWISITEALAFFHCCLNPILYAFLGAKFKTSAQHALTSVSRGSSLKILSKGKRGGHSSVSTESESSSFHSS
The target of data set [2] is C-C chemokine receptor type 5 (Homo sapiens) (UniProt P51681). Kind of data set: Displacement of C-45523 from CCR5 (unknown origin) expressed in CHO cells at 50 uM incubated for 40 mins by competitive binding assay based spectrophotometric method. Type of data set: cell-based.
Sequence of C-C chemokine receptor type 5 (Homo sapiens) (P51681 whole entry, looked up): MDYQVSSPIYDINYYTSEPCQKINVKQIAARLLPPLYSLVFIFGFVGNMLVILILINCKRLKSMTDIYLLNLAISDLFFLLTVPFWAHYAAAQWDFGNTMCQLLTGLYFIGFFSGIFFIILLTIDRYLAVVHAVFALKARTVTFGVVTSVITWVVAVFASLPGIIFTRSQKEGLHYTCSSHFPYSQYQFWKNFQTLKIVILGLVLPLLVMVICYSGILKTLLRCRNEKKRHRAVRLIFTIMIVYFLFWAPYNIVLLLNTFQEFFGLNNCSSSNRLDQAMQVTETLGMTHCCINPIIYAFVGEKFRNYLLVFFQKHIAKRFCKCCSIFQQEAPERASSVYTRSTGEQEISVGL
Data set [3] concerns C-X-C chemokine receptor type 4 (Homo sapiens), P61073 [D97A]. The data set can be described thus: Displacement of 12G5 mAb from CXCR4 D97A mutant (unknown origin) expressed in CHO cells at 500 nM incubated for 40 mins by spectrophotometric method. Type of data set: cell-based.
Sequence of C-X-C chemokine receptor type 4 (Homo sapiens), P61073 [D97A] (P61073 whole entry D97A): as the sequence (P61073 whole entry) above, with D97A counted along it
Data set [4] relates to C-X-C chemokine receptor type 4 (Homo sapiens), P61073 [W94A]. The data set can be described thus: Displacement of 12G5 mAb from CXCR4 W94A mutant (unknown origin) expressed in CHO cells at 500 nM incubated for 40 mins by spectrophotometric method. The format is cell-based.
Sequence of C-X-C chemokine receptor type 4 (Homo sapiens), P61073 [W94A] (P61073 whole entry W94A): as the sequence (P61073 whole entry) above, with W94A counted along it
Data set [5] relates to C-X-C chemokine receptor type 4 (Homo sapiens), P61073 [E288D]. Kind of data set: Displacement of 12G5 mAb from CXCR4 E288D mutant (unknown origin) expressed in CHO cells at 500 nM incubated for 40 mins by spectrophotometric method. The format is cell-based.
Sequence of C-X-C chemokine receptor type 4 (Homo sapiens), P61073 [E288D] (P61073 whole entry E288D): as the sequence (P61073 whole entry) above, with E288D counted along it
For data set [6], the target named is T1, C-X-C chemokine receptor type 4. Kind of data set: Antagonist activity against CXCR4 in human SUP-T1 cells assessed as inhibition of SDF-1alpha-induced cell migration preincubated with cells for 30 mins followed by incubation with SDF-1alpha for 3 hrs by CellTiter-96 reagent based transwell assay. The note with it: filed as antagonist, time 210.0 min.
For data set [7], the system named is C-X-C chemokine receptor type 4 (Homo sapiens), P61073 [H113A]. Kind of data set: Displacement of 12G5 mAb from CXCR4 H113A mutant (unknown origin) expressed in CHO cells at 500 nM incubated for 40 mins by spectrophotometric method. Type of data set: cell-based.
Sequence of C-X-C chemokine receptor type 4 (Homo sapiens), P61073 [H113A] (P61073 whole entry H113A): as the sequence (P61073 whole entry) above, with H113A counted along it
Data set [8] has as its system Human immunodeficiency virus 1. The data set can be described thus: Antiviral activity against HIV-1 R5 Bal-6 infected in human PBMC assessed as inhibition of viral replication by measuring reduction in p24 antigen level at 0.1 to 10 uM measured after 5 days by ELISA. The format is functional, organism-based. The note with it: dose 0.1-10 µM, time 5.0 day. In general terms: An ELISA detects its analyte on a solid surface through an enzyme-linked reagent.

The subject of data set [9] is Human immunodeficiency virus 1. Kind of data set: Antiviral activity against HIV-1 X4 NL4-3 infected in human PBMC assessed as inhibition of viral replication by measuring reduction in p24 antigen level at 10 uM measured after 5 days by ELISA. Type of data set: functional, organism-based. Conditions: time 5.0 day.
For data set [10], the system named is C-X-C chemokine receptor type 4 (Homo sapiens), P61073 [D193A]. Kind of data set: Displacement of 12G5 mAb from CXCR4 D193A mutant (unknown origin) expressed in CHO cells at 500 nM incubated for 40 mins by spectrophotometric method. Type of data set: cell-based.
Sequence of C-X-C chemokine receptor type 4 (Homo sapiens), P61073 [D193A] (P61073 whole entry D193A): as the sequence (P61073 whole entry) above, with D193A counted along it
The test system of data set [11] is C-X-C chemokine receptor type 4 (Homo sapiens), P61073 [W161A]. Kind of data set: Displacement of 12G5 mAb from CXCR4 W161A mutant (unknown origin) expressed in CHO cells at 500 nM incubated for 40 mins by spectrophotometric method. The format is cell-based.
Sequence of C-X-C chemokine receptor type 4 (Homo sapiens), P61073 [W161A] (P61073 whole entry W161A): as the sequence (P61073 whole entry) above, with W161A counted along it
The test system of data set [12] is C-X-C chemokine receptor type 4 (Homo sapiens), P61073 [Y45A]. The data set can be described thus: Displacement of 12G5 mAb from CXCR4 Y45A mutant (unknown origin) expressed in CHO cells at 500 nM incubated for 40 mins by spectrophotometric method. Conditions: filed as antagonist. The format is cell-based.
Sequence of C-X-C chemokine receptor type 4 (Homo sapiens), P61073 [Y45A] (P61073 whole entry Y45A): as the sequence (P61073 whole entry) above, with Y45A counted along it
The nature of data set [13]: Cytotoxicity against human PBMC assessed as reduction in cell viability at 0.016 to 10 uM incubated for 5 days by CellTiter-Blue assay. Type of data set: toxicity, cell-based. The note with it: 120 h, dose 0.016-10 µM, time 5 day.
In data set [14] the target is T1, C-X-C chemokine receptor type 4. Kind of data set: Antagonist activity against EGFP-tagged CXCR4 (unknown origin) transfected in CHO cells assessed as inhibition of SDF-1alpha-induced receptor internalization at 10 uM preincubated for 10 mins followed by SDF-1alpha addition by confocal microscopy. The note with it: filed as antagonist. Type of data set: cell-based.

For data set [15], the system named is C-X-C chemokine receptor type 4 (Homo sapiens), P61073 [D262N]. Kind of data set: Displacement of 12G5 mAb from CXCR4 D262N mutant (unknown origin) expressed in CHO cells at 500 nM incubated for 40 mins by spectrophotometric method. The format is cell-based. Conditions: filed as antagonist.
Sequence of C-X-C chemokine receptor type 4 (Homo sapiens), P61073 [D262N] (P61073 whole entry D262N): as the sequence (P61073 whole entry) above, with D262N counted along it
Data set [16] relates to C-X-C chemokine receptor type 4 (Homo sapiens), P61073 [N119A]. Kind of data set: Displacement of 12G5 mAb from CXCR4 N119A mutant (unknown origin) expressed in CHO cells at 500 nM incubated for 40 mins by spectrophotometric method. The format is cell-based.
Sequence of C-X-C chemokine receptor type 4 (Homo sapiens), P61073 [N119A] (P61073 whole entry N119A): as the sequence (P61073 whole entry) above, with N119A counted along it
Data set [17] concerns C-X-C chemokine receptor type 4 (Homo sapiens), P61073 [W195A]. Kind of data set: Displacement of 12G5 mAb from CXCR4 W195A mutant (unknown origin) expressed in CHO cells at 500 nM incubated for 40 mins by spectrophotometric method. The format is cell-based.
Sequence of C-X-C chemokine receptor type 4 (Homo sapiens), P61073 [W195A] (P61073 whole entry W195A): as the sequence (P61073 whole entry) above, with W195A counted along it
Data set [18] concerns C-X-C chemokine receptor type 4 (Homo sapiens), P61073 [E288Q]. The data set can be described thus: Displacement of 12G5 mAb from CXCR4 E288Q mutant (unknown origin) expressed in CHO cells at 500 nM incubated for 40 mins by spectrophotometric method. Conditions: filed as antagonist. Type of data set: cell-based.
Sequence of C-X-C chemokine receptor type 4 (Homo sapiens), P61073 [E288Q] (P61073 whole entry E288Q): as the sequence (P61073 whole entry) above, with E288Q counted along it
In data set [19] the test system is C-X-C chemokine receptor type 4 (Homo sapiens), P61073 [F87A]. The data set can be described thus: Displacement of 12G5 mAb from CXCR4 F87A mutant (unknown origin) expressed in CHO cells at 500 nM incubated for 40 mins by spectrophotometric method. The format is cell-based.
Sequence of C-X-C chemokine receptor type 4 (Homo sapiens), P61073 [F87A] (P61073 whole entry F87A): as the sequence (P61073 whole entry) above, with F87A counted along it
The target of data set [20] is T1, C-X-C chemokine receptor type 4. The data set can be described thus: Antagonist activity against CXCR4 in human SUP-T1 cells assessed as inhibition of SDF-1alpha-induced intracellular calcium mobilization at 10 uM by Fluo-4AM dye based fluorescence analysis. The format is cell-based. The note with it: filed as antagonist.
The subject of data set [21] is C-X-C chemokine receptor type 4 (Homo sapiens), P61073 [T117A]. The data set can be described thus: Displacement of 12G5 mAb from CXCR4 T117A mutant (unknown origin) expressed in CHO cells at 500 nM incubated for 40 mins by spectrophotometric method. The format is cell-based. Conditions: filed as antagonist.
In data set [22] the test system is C-X-C chemokine receptor type 4 (Homo sapiens), P61073 [Y116A]. The data set can be described thus: Displacement of 12G5 mAb from CXCR4 Y116A mutant (unknown origin) expressed in CHO cells at 500 nM incubated for 40 mins by spectrophotometric method. Type of data set: cell-based.
Sequence of C-X-C chemokine receptor type 4 (Homo sapiens), P61073 [Y116A] (P61073 whole entry Y116A): as the sequence (P61073 whole entry) above, with Y116A counted along it
The subject of data set [23] is C-X-C chemokine receptor type 4 (Homo sapiens), P61073 [E288A]. The data set can be described thus: Displacement of 12G5 mAb from CXCR4 E288A mutant (unknown origin) expressed in CHO cells at 500 nM incubated for 40 mins by spectrophotometric method. The format is cell-based.
Data set [24] concerns the target T1, C-X-C chemokine receptor type 4. Kind of data set: Antagonist activity against CXCR4 in human SUP-T1 cells assessed as inhibition of SDF-1alpha-induced cell migration at 10 uM preincubated with cells for 30 mins followed by incubation with SDF-1alpha for 3 hrs by CellTiter-96 reagent based transwell assay. Conditions: filed as antagonist, time 210.0 min.
Data set [25] has the same target. Kind of data set: Antagonist activity against EGFP-tagged CXCR4 (unknown origin) transfected in CHO cells assessed as inhibition of SDF-1alpha-induced receptor internalization at 0.01 to 10 uM preincubated for 10 mins followed by SDF-1alpha addition by confocal microscopy. Type of data set: cell-based. The note with it: filed as antagonist, dose 0.01-10 µM.
Data set [26] has the same target. The data set can be described thus: Antagonist activity against CXCR4 in human SUP-T1 cells assessed as inhibition of SDF-1alpha-induced intracellular calcium mobilization by Fluo-4AM dye based fluorescence analysis. Type of data set: cell-based. Conditions: filed as antagonist, dose 0.01-10 µM. A general note: A change in cytosolic calcium serves as a functional read-out for many receptors and channels.

Sequence of C-X-C chemokine receptor type 4 (Homo sapiens), P61073 [E288A] (P61073 whole entry E288A): as the sequence (P61073 whole entry) above, with E288A counted along it
Sequence of C-X-C chemokine receptor type 4 (Homo sapiens), P61073 [T117A] (P61073 whole entry T117A): as the sequence (P61073 whole entry) above, with T117A counted along it

As for `CC(C)C[C@@H](N)C(=O)NCC(=O)N[C@H](C)C(=O)N[C@H](CO)C(=O)N[C@H](Cc1c[nH]c2ccccc12)C(=O)N[C@H](Cc1cnc[nH]1)C(=O)N[C@H](CCCNC(=N)N)C(=O)N1CCC[C@@H]1C(=O)N[C@H](CC(=O)O)C(=O)N[C@H](CCCCN)C(=O)N[C@H](CCCCN)C(=O)N[C@H](CCCNC(=N)N)C(=O)N(CCCCCC(=O)O)[C@@H](CCCCN)C(=O)N[C@@H](CCCNC(=N)N)C(=O)N[C@@H](CCCCN)C(=O)N[C@H](CS)C(=O)N[C@H](C(=O)N[C@@H](CCCNC(=N)N)C(=O)N1CCC[C@H]1C(=O)N[C@@H](CC(N)=O)C(=O)N[C@@H](CC(N)=O)C(=O)N[C@@H](CC(N)=O)C(=O)N[C@H](C(N)=O)[C@H](C)O)[C@H](C)O`, the IC50 (in general, the concentration at which inhibition is half-maximal) in data set [1] was determined as 48 nM. The inhibition (usually the drop in the measured response relative to a control, in per cent) in data set [2] was 10.4%.

`CC(C)C[C@@H](N)C(=O)NCC(=O)N[C@H](C)C(=O)N[C@H](CO)C(=O)N[C@H](Cc1c[nH]c2ccccc12)C(=O)N[C@H](Cc1cnc[nH]1)C(=O)N[C@H](CCCNC(=N)N)C(=O)N1CCC[C@@H]1C(=O)N[C@H](CC(=O)O)C(=O)N[C@H](CCCCN)C(=O)N[C@H](CCCCN)C(=O)N[C@H](CCCNC(=N)N)C(=O)N(CCCCCC(=O)O)[C@@H](CCCCN)C(=O)N[C@@H](CCCNC(=N)N)C(=O)N[C@@H](CCCCN)C(=O)N[C@@H](CCC(N)=O)C(=O)N[C@@H](CCCNC(=N)N)C(=O)NCC(=O)N1CCC[C@H]1C(=O)NCC(=O)N[C@@H](CCCNC(=N)N)C(=O)N[C@@H](C)C(=O)N[C@@H](Cc1ccccc1)C(N)=O`: the inhibition result in [3], in [4], in [5], in data set [7], in data set [10] and in [11] was “inactive” each time. For the same compound, the inhibition entry in [16], in [17], in data set [19], in [22] and in data set [23] was “inactive” in each case. Besides, the inhibition entry in data set [6] is “Dose-Dependent Effect”; in data set [14] it was 100%; in data set [2], 17.2%; in data set [20] it was 100%; in data set [24] it was 100%; in data set [26], “Dose-Dependent Effect”. The result in data set [8] was inactive. The result in [9] was Active. Further, the inhibition result in data set [12], in data set [15], in [18], in data set [21] and in [25] was “Active” in each case. Besides, the Activity result in [13] is “Non-Toxic”.

Take `CC(C)C[C@@H](N)C(=O)NCC(=O)N[C@H](C)C(=O)N[C@H](CO)C(=O)N[C@H](Cc1c[nH]c2ccccc12)C(=O)N[C@H](Cc1cnc[nH]1)C(=O)N[C@H](CCCNC(=N)N)C(=O)N1CCC[C@@H]1C(=O)N[C@H](CC(=O)O)C(=O)N[C@H](CCCCN)C(=O)N[C@H](CCCCN)C(=O)N[C@H](CCCNC(=N)N)C(N)=O` (H-[dL]G[dA][dS][dW][dH][dR][dP][dD][dK][dK][dR]-NH2): the concentration for half-maximal inhibition (IC50) in data set [1] amounted to 531 nM.

`CC(C)C[C@@H](N)C(=O)NCC(=O)N[C@H](C)C(=O)N[C@H](CO)C(=O)N[C@H](Cc1c[nH]c2ccccc12)C(=O)N[C@H](Cc1cnc[nH]1)C(=O)N[C@H](CCCNC(=N)N)C(=O)N1CCC[C@@H]1C(=O)N[C@H](CC(=O)O)C(=O)N[C@H](CCCCN)C(=O)N[C@H](CCCCN)C(=O)N[C@H](CCCNC(=N)N)C(=O)N(CCCCCC(=O)O)[C@@H](CCCCN[C@H](CS)C(=O)N[C@H](C(=O)N[C@@H](CCCNC(=N)N)C(=O)N1CCC[C@H]1C(=O)N[C@@H](CC(N)=O)C(=O)N[C@@H](CC(N)=O)C(=O)N[C@@H](CC(N)=O)C(=O)N[C@H](C(=O)N[C@@H](CCCCN)C(=O)N[C@@H](CCCNC(=N)N)C(N)=O)[C@H](C)O)[C@H](C)O)C(N)=O`: the result in data set [8] was inactive. The result in data set [9] was Active. This compound also gave an IC50 in [1] of 25.4 nM. Also, in data set [13], the Activity result is listed as “Non-Toxic”.
